For one test, the target named is T1, PDK1 kinase (Homo sapiens, UniProt O15530).
T1 sequence (O15530 1-556): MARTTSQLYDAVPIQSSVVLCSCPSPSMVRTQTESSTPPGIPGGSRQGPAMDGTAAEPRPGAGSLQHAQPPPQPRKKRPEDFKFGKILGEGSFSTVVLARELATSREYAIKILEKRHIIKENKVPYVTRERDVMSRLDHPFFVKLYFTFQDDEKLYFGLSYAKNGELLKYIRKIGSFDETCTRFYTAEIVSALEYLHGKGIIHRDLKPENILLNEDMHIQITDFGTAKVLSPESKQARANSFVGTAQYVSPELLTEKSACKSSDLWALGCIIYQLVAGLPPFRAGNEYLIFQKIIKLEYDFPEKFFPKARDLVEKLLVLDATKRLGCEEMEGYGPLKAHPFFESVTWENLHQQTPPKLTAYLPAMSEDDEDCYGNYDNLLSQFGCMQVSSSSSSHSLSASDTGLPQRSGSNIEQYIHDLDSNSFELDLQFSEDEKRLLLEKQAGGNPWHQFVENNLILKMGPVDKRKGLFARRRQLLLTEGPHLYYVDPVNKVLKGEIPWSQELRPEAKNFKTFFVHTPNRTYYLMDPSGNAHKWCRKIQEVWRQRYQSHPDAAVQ
Put plainly: PDK1 Kinase Alpha Screen Assay. In kind it is biochemical. The note with it: PDK1 Kinase Alpha Screen Assay; read-out: PDK1 IC50. The procedure, abridged: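 AlphaScreen readout: phospho-peptide captured by phospho-(Ser/Thr) PKA substrate antibody (0.3 mg/ml) on protein A acceptor beads, biotin peptide on streptavidin donor beads (25 μg/ml each), overnight at room temperature. Kinase step used 50 nM PDK1-4 peptide, 10 uM ATP, 3-18 hours.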

For another test, the system named is PC-3 cells. Nature of the test: Cell Proliferation Assay (Cell Titer Glo), PC-3 cell line. In kind it is cell-based. As to conditions: Homo sapiens, PC-3, Cell Proliferation Assay, read-out: CPEC50 PC3. The procedure, abridged: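 Cell Titer Glo luminescence, read after fresh medium replaced the dosing medium, gave viability of PC-3 cells plated at 1000 cells/well. Compounds, 1:3 serially diluted in DMSO at 500× and then in medium, were added after 3-5 h adhesion and incubated 3 days at 37° C.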
(ATP-based viability assays read luminescence as a measure of living cells.)

Drawing on patent publication US7932262B2 (Novartis AG, priority 2006, dated 2011), this text covers IC50 and EC50 for 29 compounds.

Read-outs that look alike come from different tables or passages of the source. Bounds are passed on as bounds.

In general, IC50 refers to the point on the concentration scale where inhibition reaches its midpoint. With `C#Cc1cc2cnc(Nc3ccc(C(=O)NC(C)C)cc3)nc2cc1OC1CCN(C(C)C)CC1` [Compound 636, 4-(6-ethynyl-7-(1-isopropylpiperidin-4-yloxy)quinazolin-2-ylamino)-N-isopropylbenzamide], the half-inhibitory concentration (IC50) on PDK1 kinase is less than 5 µM. Also, in the test with PC-3 cells (PC3), the EC50 was less than 5 µM.

Turning to `CC(C)NC(=O)c1ccc(Nc2ncc3cc(C4CC4)c(OC4CCN(C(C)C)CC4)cc3n2)cc1` [Compound 637, 4-(6-cyclopropyl-7-(1-isoproylpiperidin-4-yloxy)quinazolin-2-ylamino)-N-isopropylbenzamide], the IC50 on PDK1 kinase was less than 5 µM. In the test on PC-3 cells (PC3), the EC50 was less than 5 µM.

On to `CC(C)NC(=O)c1ccc(Nc2ncc3cc(-c4nccs4)c(OC4CCN(C(C)C)CC4)cc3n2)cc1` [Compound 638, N-isopropyl-4-(7-(1-isoproylpiperidin-4-yloxy)-6-(thiazol-2-yl)quinazolin-2-ylamino)benzamide], for which, on PDK1 kinase, the IC50 is less than 5 µM. Also, the EC50 in the test with PC-3 cells (PC3) was less than 5 µM.

With `CC(C)NC(=O)c1ccc(Nc2ncc3cc(C#N)c(OC4CCN(C(C)C)CC4)cc3n2)cc1` [Compound 639], the 50% inhibitory concentration (IC50) at PDK1 kinase is less than 5 µM. In the test on PC-3 cells (PC3), the EC50 was less than 5 µM.

As to `N#Cc1cc2cnc(Nc3ccc(C(=O)N4CCOCC4)cc3)nc2cc1OC1CCNCC1` [Compound 640, 2-(4-(morpholine-4-carbonyl)phenylamino)-7-(piperidin-4-yloxy)quinazoline-6-carbonitrile], the half-inhibitory concentration (IC50) at PDK1 kinase was less than 5 µM. In addition, in the test with PC-3 cells (PC3), the EC50 was less than 5 µM.

For the compound `C#Cc1cc2cnc(Nc3ccc(C(=O)N4CCOCC4)cc3)nc2cc1OC1CCNCC1` [Compound 641], the IC50 on PDK1 kinase is less than 5 µM. Further, in the test with PC-3 cells (PC3), the EC50 was less than 5 µM.

Regarding `O=C(c1ccc(Nc2ncc3cc(C4CC4)c(OC4CCNCC4)cc3n2)cc1)N1CCOCC1` [Compound 642, (4-(6-cyclopropyl-7-(piperidin-4-yloxy)quinazolin-2-ylamino)phenyl)(morpholino)methanone], the concentration for half-maximal inhibition (IC50) at PDK1 kinase is less than 5 µM. Moreover, the EC50 with PC-3 cells (PC3) is less than 5 µM.

As to `c1cc(N2CCOCC2)ccc1Nc1ncc2cc(C3CC3)c(OC3CCNCC3)cc2n1` [Compound 643, 6-cyclopropyl-N-(4-morpholinophenyl)-7-(piperidin-4-yloxy)quinazolin-2-amine], the concentration for half-maximal inhibition (IC50) at PDK1 kinase was less than 5 µM. Besides, in the test on PC-3 cells (PC3), the EC50 is less than 5 µM.

For `N#Cc1cc2cnc(Nc3ccc(N4CCOCC4)cc3)nc2cc1OC1CCNCC1` [Compound 644, 2-(4-morpholinophenylamino)-7-(piperidin-4-yloxy)quinazoline-6-carbonitrile], the 50% inhibitory concentration (IC50) on PDK1 kinase was less than 5 µM. For the same compound, the EC50 in the test with PC-3 cells (PC3) is less than 5 µM.

Take `Brc1cc2cnc(Nc3ccc(N4CCOCC4)cc3)nc2cc1OC1CCNCC1` [Compound 650, 6-bromo-N-(4-morpholinophenyl)-7-(piperidin-4-yloxy)quinazolin-2-amine]: on PDK1 kinase, the IC50 is less than 5 µM. In addition, in the test with PC-3 cells (PC3), the EC50 was less than 5 µM.

For the compound `COc1ccc(Cl)c2cnc(Nc3cc(CN(C)C)cc(NC(C)=O)c3)nc12` [Compound 691], the IC50 at PDK1 kinase was less than 5 µM. Besides, the EC50 in the test with PC-3 cells (PC3) was 5 to 10 µM.

Regarding `O=C(c1ccc(Nc2ncc3c(Cl)ccc(OC4CCNCC4)c3n2)cc1Cl)N1CCOCC1` [Compound 692, (2-chloro-4-(5-chloro-8-(piperidin-4-yloxy)quinazolin-2-ylamino)phenyl) (morpholino)methanone], the half-maximal inhibitory concentration (IC50) at PDK1 kinase was less than 5 µM. Besides, the EC50 with PC-3 cells (PC3) is less than 5 µM.

Turning to `O=C(c1ccc(Nc2ncc3c(Cl)ccc(NC4CCNCC4)c3n2)cc1)N1CCOCC1` [Compound 693, (4-(5-chloro-8-(piperidin-4-ylamino)quinazolin-2-ylamino)phenyl)(morpholino)methanone], on PDK1 kinase, the IC50 was less than 5 µM. Further, in the test with PC-3 cells (PC3), the EC50 was less than 5 µM.

With `NC1CCN(c2ccc(Cl)c3cnc(Nc4ccc(C(=O)N5CCOCC5)cc4)nc23)CC1` [Compound 694, (4-(8-(4-aminopiperidin-1-yl)-5-chloroquinazolin-2-ylamino)phenyl)(morpholino)methanone], the IC50 on PDK1 kinase was less than 5 µM. Further, the EC50 in the test on PC-3 cells (PC3) was less than 5 µM.

Take `CC(C)N1CCC(Nc2ccc(Cl)c3cnc(Nc4ccc(C(=O)N5CCOCC5)cc4)nc23)CC1` [Compound 695, (4-(5-chloro-8-(1-isopropylpiperidin-4-ylamino)quinazolin-2-ylamino)phenyl)(morpholino)methanone]: the half-maximal inhibitory concentration (IC50) on PDK1 kinase was less than 5 µM. The EC50 with PC-3 cells (PC3) fell in the range of 5 to 10 µM.

Take `C#Cc1cc(OC2CCN(C(C)C)CC2)c2nc(Nc3cccc(N4CCOCC4)c3)ncc2c1` [Compound 697, 6-ethynyl-8-(1-isopropylpiperidin-4-yloxy)-N-(3-morpholinophenyl)quinazolin-2-amine]: the concentration for half-maximal inhibition (IC50) on PDK1 kinase was less than 5 µM. Further, in the test with PC-3 cells (PC3), the EC50 is less than 5 µM.

Regarding `C#Cc1cc(OC2CCN(C(C)C)CC2)c2nc(Nc3ccc(N4CCOCC4)cc3)ncc2c1` [Compound 698, 6-ethynyl-8-(1-isopropylpiperidin-4-yloxy)-N-(4-morpholinophenyl)quinazolin-2-amine], the half-inhibitory concentration (IC50) at PDK1 kinase is less than 5 µM. Further, in the test with PC-3 cells (PC3), the EC50 is less than 5 µM.

On to `CC(C)N1CCC(Oc2cc(C#N)cc3cnc(Nc4ccc(N5CCOCC5)cc4)nc23)CC1` [Compound 699, 8-(1-isopropylpiperidin-4-yloxy)-2-(4-morpholinophenylamino)quinazoline-6-carbonitrile], for which the IC50 at PDK1 kinase was less than 5 µM. In addition, the EC50 in the test with PC-3 cells (PC3) is less than 5 µM.

As for `C#Cc1cc(OC2CCNCC2)c2nc(Nc3ccc(N4CCOCC4)cc3)ncc2c1` [Compound 700, 6-ethynyl-N-(4-morpholinophenyl)-8-(piperidin-4-yloxy)quinazolin-2-amine], on PDK1 kinase, the IC50 was less than 5 µM. Besides, the EC50 in the test with PC-3 cells (PC3) is less than 5 µM.

Take `N#Cc1cc(OC2CCNCC2)c2nc(Nc3ccc(N4CCOCC4)cc3)ncc2c1` [Compound 701, 2-(4-morpholinophenylamino)-8-(piperidin-4-yloxy)quinazoline-6-carbonitrile]: the IC50 on PDK1 kinase is less than 5 µM. The EC50 with PC-3 cells (PC3) was less than 5 µM.

Consider `c1csc(-c2cc(OC3CCNCC3)c3nc(Nc4ccc(N5CCOCC5)cc4)ncc3c2)n1` [Compound 702, N-(4-morpholinophenyl)-8-(piperidin-4-yloxy)-6-(thiazol-2-yl)quinazolin-2-amine], for which the IC50 on PDK1 kinase was less than 5 µM. Also, the EC50 in the test with PC-3 cells (PC3) is less than 5 µM.

As to `c1cc(N2CCOCC2)ccc1Nc1ncc2cc(C3CC3)cc(OC3CCNCC3)c2n1` [Compound 703, 6-cyclopropyl-N-(4-mropholinophenyl)-8-(piperidin-4-yloxy)quinazolin-2-amine], at PDK1 kinase, the IC50 was less than 5 µM. Also, in the test with PC-3 cells (PC3), the EC50 is less than 5 µM.

Take `CC(C)N1CCC(Oc2cc(C3CC3)cc3cnc(Nc4ccc(N5CCOCC5)cc4)nc23)CC1` [Compound 704, 6-cyclopropyl-8-(1-isopropylpiperidin-4-yloxy)-N-(4-morpholinophenyl)quinazolin-2-amine]: the IC50 on PDK1 kinase is less than 5 µM. In addition, in the test with PC-3 cells (PC3), the EC50 was less than 5 µM.

Turning to `C#Cc1cc(OC2CCNCC2)c2nc(Nc3ccc(C(=O)N4CCOCC4)cc3)ncc2c1` [Compound 705, (4-(6-ethynyl-8-(piperidin-4-yloxy)quinazolin-2-ylamino)phenyl)(morpholino)methanone], the IC50 on PDK1 kinase is less than 5 µM. Moreover, the EC50 in the test on PC-3 cells (PC3) is less than 5 µM.

Turning to `c1csc(-c2cc(OC3CNC3)c3nc(Nc4ccc(N5CCOCC5)cc4)ncc3c2)n1` [Compound 706, 8-(azetidin-3-yloxy)-N-(4-morpholinophenyl)-6-(thiazol-2-yl)quinazolin-2-amine], the half-inhibitory concentration (IC50) at PDK1 kinase was less than 5 µM. The EC50 in the test on PC-3 cells (PC3) is less than 5 µM.

In the case of `C#Cc1cc(OC2CNC2)c2nc(Nc3ccc(N4CCOCC4)cc3)ncc2c1` [Compound 707, 8-(azetidin-3-yloxy)-6-ethynyl-N-(4-morpholinophenyl)quinazolin-2-amine], on PDK1 kinase, the IC50 is less than 5 µM. In addition, in the test on PC-3 cells (PC3 cells), the EC50 was less than 5 µM.

On to `C#Cc1cc(OC2CCNCC2)c2nc(Nc3ccc(C(=O)N4CCOCC4)cc3)ncc2c1Cl` [Compound 708, (4-(5-chloro-6-ethynyl-8-(piperidin-4-yloxy)quinazolin-2-ylamino)phenyl)(morpholino)methanone], for which the IC50 at PDK1 kinase is less than 5 µM. The EC50 with PC-3 cells (PC3 cells) was less than 5 µM.

In the case of `CC(C)Cn1cc(-c2ccc3cnc(Nc4ccc(S(=O)(=O)NCCCN5CCCC5)cc4)nc3c2)cn1` [Compound 709, 4-(7-(1-isobutyl-1H-pyrazol-4-yl)quinazolin-2-ylamino)-N-(3-(pyrrolidin-1-yl)propyl)benzenesulfonamide], the half-maximal inhibitory concentration (IC50) on PDK1 kinase is less than 5 µM. The EC50 in the test with PC-3 cells (PC3 cells) is less than 5 µM.

With `CC(C)Cn1cc(-c2ccc3cnc(Nc4ccc(S(=O)(=O)NCCN5CCOCC5)cc4)nc3c2)cn1` [Compound 710, 44-(7-(1-isobutyl-1H-pyrazol-4-yl)quinazolin-2-ylamino)-N-(2-morpholinoethyl)benzenesulfonamide], the IC50 at PDK1 kinase was less than 5 µM. In addition, in the test on PC-3 cells (PC3 cells), the EC50 was less than 5 µM.
